Measured values from publication PMC11852925 (2025).
One block for each molecule: values may come before it.

Experiments:
Assay in all cases: fluorescence titration, multiwavelength global analysis
[1] = tested on: ds26 (DNA, duplex) CAATCGGATCGAATTCGATCCGATTG; conditions: 100 mM KCl, 10 mM K-phosphate pH 7.0, 295 K
[2] = tested on: hTel22 (DNA, G4) AGGGTTAGGGTTAGGGTTAGGG; conditions: 100 mM KCl, 10 mM K-phosphate pH 7.0, 295 K, 1:1 complex
[3] = tested on: hTel45 (DNA, G4) GGGTTAGGGTTAGGGTTAGGGTTAGGGTTAGGGTTAGGGTTAGGG; conditions: 100 mM KCl, 10 mM K-phosphate pH 7.0, 295 K
[4] = tested on: c-myc22 (DNA, G4) GAGGGTGGGGAGGGTGGGGAAG; conditions: 100 mM KCl, 10 mM K-phosphate pH 7.0, 295 K, 1:1 complex

logK ([1]; 1:1 complex, cumulative 1:2 12.95, 1:3 18.35): 6.50 ± 0.03 | logK ([2]; cumulative 1:2 15.71, 2:1 (DNA:dyad) 14.14): 8.93 ± 0.07 | logK ([3]; 1:1 complex, cumulative 1:2 12.94, 1:4 25.52, 2:1 13.24): 7.91 ± 0.07 | logK ([4]; cumulative 1:2 13.78): 6.16 ± 0.02
SMILES: CN(C)CCCN1C(=O)c2ccc3c4c(c(NCCCCCCCNC(=O)c5ccc6[nH]c7c([nH]c6c5)c5c(=O)n(CCCN(C)C)c(=O)c6ccc8c(=O)n(CCCN(C)C)c(=O)c7c8c65)cc(c24)C1=O)C(=O)N(CCCN(C)C)C3=O

logK ([1]; per site of 1:2 complex, cumulative 1:2 15.25, 1:4 29.15): 7.6 | logK ([2]; ligand dimerization (logK 6.6) included, cumulative 1:2 logK 14.04): 7.64 ± 0.16 | logK ([3]; cumulative constant of 1:2 (DNA:ligand) complex, 1:4 28.6, dimerization included): 14.41 ± 0.05 | logK ([4]; dimerization (logK 6.6) included, cumulative 1:2 14.74): 6.89 ± 0.05
SMILES: CCCNC(=O)c1ccc2[nH]c3c([nH]c2c1)c1c(=O)n(CCCN(C)C)c(=O)c2ccc4c(=O)n(CCCN(C)C)c(=O)c3c4c21

logK ([1]; 1:1 complex, cumulative 1:2 12.48, 1:3 17.70): 5.82 ± 0.02 | logK ([2]; cumulative 1:2 14.68, 1:3 20.37): 7.67 ± 0.05 | logK ([3]; cumulative constant of 1:2 (DNA:dyad) complex, 1:4 26.88, 2:1 11.55): 13.80 ± 0.05 | logK ([4]; cumulative 1:2 14.36, 2:1 11.69): 7.77 ± 0.12
SMILES: CN(C)CCCN1C(=O)c2ccc3c4c(c(NCc5cn(CCCNC(=O)c6ccc7[nH]c8c([nH]c7c6)c6c(=O)n(CCCN(C)C)c(=O)c7ccc9c(=O)n(CCCN(C)C)c(=O)c8c9c76)nn5)cc(c24)C1=O)C(=O)N(CCCN(C)C)C3=O
